# Assays:
# [1] = test system: ear skin triglyceride levels; assay: Hamster ear triglyceride content after chronic treatment; type: in vivo, Syrian hamster; conditions: oral 30 mg/kg once daily for 19 days
# Experimental: Male Syrian gold hamsters weighing between 150-200 g (22-23 weeks) were maintained adlibitum on standard hamster chow and on a 12 hour light and dark cycle. […] At the end of the study period, animals were euthanized by CO2 asphyxiation. Hamster pinia (ear) were removed by punch biopsy (using an 8 mm diameter Sklar Tru-punch—Sklar Instruments). Punch biopsies were taken just above the anatomical “V” in the aural cartilage of each ear to standardize sample collection area. The punch was then split into 2 layers (anterior and posterior). The anterior (front) surface was retained for analysis. For liver samples the bifurcated medial lobe was removed, rinsed in saline and drained of blood by placing the cut end of the lobe on a sterile absorbent paper and using capillary action. The liver lobe was then flash frozen in liquid nitrogen. Two Qiagen 3 mm Tungsten beads were added to tubes containing individual anterior biopsies of hamster ear skin along with 500 ul of homogenization buffer (methanol:water 1:1 v/v). […] Ear skin triglyceride content was determined via LC-MS on the AB SCIEX Qtrap 5500. […] Lipid extracts were then analyzed by UPLC-MS/MS using a Waters Acquity UPLC coupled to an AB Sciex QTRAP 5500 mass spectrometer. […] Lipid species were then analyzed on the mass spectrometer using positive ion electrospray ionization in the multiple reaction monitoring (MRM) mode. […]
# [2] = test system: de novo lipogenesis in ear skin and liver; assay: Effect of oral and topical ACCi on DNL (14C-acetate incorporation) in Syrian hamsters; type: in vivo, Syrian hamster; conditions: oral 100 mg/kg single dose, vs. vehicle
# Experimental: Male Syrian gold Hamster at ˜10 weeks were maintained adlibitum on standard hamster chow and water. […] Example 3 for topical delivery was prepared as a solution in a vehicle consisting of 70:30 (Ethanol:propylene glycol) at a concentration of 100 mg/ml. Topical administration of a single dose (5 ul/ear) was applied to hamster ears with a pipette (2-10 ul) tip adhering to 2 minute intervals following the dosing order. The dosing timing allowed for the formulation to spread evenly over an approximate 1 sq cm area and absorb/dry prior to returning the animal to the cage. 1 hour post ACCi dose each animal received an IP injection of ^14C-labeled acetate (ARC0158B diluted in saline) following the 2 minute interval timing format. Each animal received an individually calculated amount of ^14C-acetate based on body weight (0.1 μCi/g in a dosing volume of 2 μl/g). One hour after the ^14C-Acetate injection animals were sacrificed by CO2 asphyxiation.
# Liver and ear skin were collected for de novo lipogenesis determinations (^14C incorporation to lipid). Briefly, 2 liver punches totaling ˜400 mg of liver were collected from the bifurcated median lobe of each animal (using a 8 mm diameter Sklar Tru-punch—Sklar Instruments), rinsed with saline and blotted dry. The tissues were placed into pre-weighed in glass tubes (Pyrex 9826-16×125 mm with PTFE lined caps) containing NaOH (1.5 mL of 2.5 M).
# Ear skin samples were prepared for analysis in the following manner. One 8 mm distal biopsy punch (using an 8 mm diameter Sklar Tru-punch—Sklar Instruments) (2 per animal) was taken just above the anatomical “V” in the aural cartilage to standardize sample collection area. The punch was then split into 2 layers (anterior and posterior). The anterior (front) surface is retained for analysis. The anterior skin was placed into pre-weighed in glass tubes (Pyrex 9826-16×125 mm with PTFE lined caps) containing NaOH (1.5 mL of 2.5 M).
# Upon completion of the study, the liver and ear skin samples in NaOH were weighed and this weight was used to calculate the mass of the tissue collected. The capped tubes were heated in an dry oven (˜60° C.) until the tissue was fully degraded (˜4-6 hr, gentle vortexing 2-3 times during heating). Following degradation and cooling absolute ethanol (2.5 mL) was added to each sample. The tubes were recapped and vigorously mixed (vortexed) for 60 seconds and allowed to settle overnight at RT. Petroleum ether (4.8 mL) was added to each tube, recapped and the samples were vigorous mixed (60 sec). […] Aquasol-2 scintillation fluid (10 mL) (or other compatible scintillation fluid) was added to each vial and after vortexing the samples were counted in an appropriate scintillation counter (e g. Wallac Rack-Beta 1409 LSC). […]
# [3] = test system: SZ95 human sebocyte cells; assay: Inhibition of de novo lipogenesis (14C-acetate incorporation) in cultured human sebocytes; type: cell-based; conditions: Homo sapiens, SZ95 sebocytes, 14C-acetate incorporation into lipids relative to vehicle; read-out: C9302E Sebocyte IC50
# Experimental: SZ95 sebocytes were grown in Human Sebocyte Growth Medium (HSGM) (Sebomed® medium (Biochrom: F8205) supplemented with 10% heat-inactivated fetal bovine serum, 1% penicillin/streptomycin, 1 mM calcium chloride and 5 ng/mL recombinant human epidermal growth factor (Life Tech: PHG0311)). At 90% confluence, cells were washed three times with PBS and then detached with 0.05% Trypsin-EDTA. Cells were centrifuged and resuspended in HSGM containing 10% charcoal-stripped serum (Life Tech: 12676-029). Cells were then plated in 24-well plates at a density of 0.25×10^6 cells/well and were incubated overnight to enable cell adherence to the culture plate.
# Cells were treated with a dose response of compound, and each dose was assayed in triplicate. Briefly, compounds were dissolved in DMSO stocks and diluted 1:1000 into charcoal-stripped media. 0.1% DMSO without compound was used as the vehicle control. After a 1 hour preincubation with compound or vehicle, 0.25 μCi ^14C-acetic acid (American Radiolabeled Chemicals: ARC0158B) was added to each well. Plates were then incubated for an additional two hours. At the end of the incubation period, cells were removed from incubator, placed on ice, and then washed twice with ice-cold PBS to remove free ^14C-acetic acid. Plates were sealed and stored at −20° C. until analysis.
# Plates were shaken for 1 hour at room temperature to induce lysis. Lysates were transferred to individual 1.5 mL polypropylene tubes, and wells were washed with 175 μl of PBS, which was added to lysates. 450 μl of a 1:1 (v/v) chloroform:methanol solution was then added to each tube, and then all tubes were vortexed for 10 seconds and centrifuged at 20,000×g for 5 minutes at room temperature to separate aqueous from organic phase. A 25 μl aliquot was removed from the bottom organic layer of each sample and added to 6 mL OptiPhase supermix (PerkinElmer: 1200-439) scintillation fluid. Counts of ^14C incorporated into lipids were assessed by scintillation counting. DNL (counts of ^14C incorporated into lipids) was expressed for compound treated cells relative to DNL in the vehicle control treated cells for determination of EC50 values. For a subset of the compounds tested, a second aliquot (3×35 μl) of the organic layer of each sample was removed and applied to a TLC lane (Analtech Silica Gel G Plates). Radiolabeled lipids were resolved using a 2-solvent system. Solvent 1 contained a 100:100:100:40:36 mixture of ethyl acetate:isopropyl alcohol:CHCl3:MeOH:0.25% KCl and solvent 2 a 70:27:3 hexane:diethyl ether:acetic acid mix. The TLC plate was dried under nitrogen for 30 minutes and [^14C]-calibrators added to a vacant lane. Bands were visualized and quantitated using a Molecular Dynamics' Storm 860 Phosphorimager system following 18-36 hours exposure to a Phosphorimager screen.
structure (smiles),measurement,setting,value
"CC(C)(C)n1cc2c(n1)C(=O)CC1(CCN(C(=O)c3ccc4[nH]ncc4c3)CC1)O2 [Example 8, 2′-(tert-butyl)-1-(1H-indazole-5-carbonyl)-2′H-spiro[piperidine-4,5′-pyrano[3,2-c]pyrazol]-7′(6′H)-one]",ear skin triglyceride levels vs. vehicle,[1],No changes
same,suppression of incorporation of de novo synthesized fatty acids in liver,[2],85%
same,suppression of incorporation of de novo synthesized fatty acids in skin,[2],84%
same,IC50,[3],549 nM
